Patent US20240383923A1, “HETEROARYL DERIVATIVE AND USE THEREOF” (VORONOI INC., priority 2022, published 2024)

These compounds were tested on BT-474 cancer cells (assay: Inhibition of BT-474 cell proliferation (CellTiter-Glo)). Conditions: Homo sapiens, BT-474 cells, 120 hours.
Assay type: cell-based
Method: BT-474 cancer cells were cultured by using RPMI-1640 medium containing 20% FBS. The BT-474 cancer cells were seeded to a white clear bottom 96 well plate (Corning) at 5,000 cells per well 48 hours before the BT-474 cancer cells were treated with Example Compounds. Example Compounds were diluted in dimethylsulfoxide (3-fold diluted, total 11 concentrations) and 1 μL each was injected so that the final concentration was 0.2 nM to 10 μM. For the measurement of living cells, the cells were stored at room temperature for 10 minutes using the CellTiter-Glo cell viability reagent (Promega) after a predetermined time (120 hours) after the treatment of Example Compounds, and then the luminescence intensity was measured using a reader (SynergyNeo, Biotek). Each test was repeated three times.
The result value was calculated as a cell growth rate (%) compared to a control group. Graphs were plotted and GI50 values were calculated using the GraphPad Prism version 8.0 program, and the results are shown in Table 18 below.

SMILES	GI50 [nM]
[2H]C([2H])([2H])N1CCC[C@@H]1/C=C(\F)C(=O)Nc1cc2c(Nc3cc(C)c(Oc4ccn5ncnc5c4)cc3OC)ncnc2cc1OC [Example 154, (R,Z)—N-(4-((4-([1,2,4]triazolo[1,5-a]pyridin-7-yloxy)-2-methoxy-5-methylphenyl)amino)-7-methoxyquinazolin-6-yl)-2-fluoro-3-(1-(methyl-d3)pyrrolidin-2-yl)acrylamide]	≤ 50
[2H]C([2H])([2H])Oc1cc(Oc2ccn3ncnc3c2)c(F)cc1Nc1ncnc2cc(OC)c(NC(=O)/C(F)=C/[C@H]3CCCN3C)cc12 [Example 151, (R,Z)—N-(4-((4-([1,2,4]triazolo[1,5-a]pyridin-7-yloxy)-5-fluoro-2-(methoxy-d3)phenyl)amino)-7-methoxyquinazolin-6-yl)-2-fluoro-3-(1-methylpyrrolidin-2-yl)acrylamide]	≤ 50
COc1cc(Oc2ccn3ncnc3c2)c(C)cc1Nc1ncnc2cc(N3CC(F)(F)C3)c(NC(=O)/C(F)=C/[C@H]3CCCN3C)cc12 [Example 114, (R,Z)—N-(4-((4-([1,2,4]triazolo[1,5-a]pyridin-7-yloxy)-2-methoxy-5-methylphenyl)amino)-7-(3,3-difluoroazetidin-1-yl)quinazolin-6-yl)-2-fluoro-3-(1-methylpyrrolidin-2-yl)acrylamide]	≤ 50
[2H]C([2H])([2H])N1CCC[C@@H]1/C=C(/F)C(=O)Nc1cc2c(Nc3cc(F)c(Oc4ccn5ncnc5c4)cc3OC)ncnc2cc1OC [Example 157, (R,E)-N-(4-((4-([1,2,4]triazolo[1,5-a]pyridin-7-yloxy)-5-fluoro-2-methoxyphenyl)amino)-7-methoxyquinazolin-6-yl)-2-fluoro-3-(1-(methyl-d3)pyrrolidin-2-yl)acrylamide]	≤ 50
COc1cc2ncnc(Nc3cc(C)c(Oc4ccn(C)c(=O)c4)cc3OC)c2cc1NC(=O)/C(F)=C\[C@H]1CCCN1C [Example 71, (R,E)-2-fluoro-N-(7-methoxy-4-((2-methoxy-5-methyl-4-((1-methyl-2-oxo-1,2-dihydropyridin-4-yl)oxy)phenyl)amino)quinazolin-6-yl)-3-(1-methylpyrrolidin-2-yl)acrylamide]	≤ 50
COc1cc2ncnc(Nc3cc(C)c(Oc4ccn5ncnc5c4)cc3OC)c2cc1NC(=O)/C(F)=C/[C@H]1CCCCN1C [Example 131, (R,Z)—N-(4-((4-([1,2,4]triazolo[1,5-a]pyridin-7-yloxy)-2-methoxy-5-methylphenyl)amino)-7-methoxyquinazolin-6-yl)-2-fluoro-3-(1-methylpiperidin-2-yl)acrylamide]	≤ 50
COc1cc2ncnc(Nc3cc(C)c(Oc4ccn5ncnc5c4)cc3OC(F)(F)F)c2cc1NC(=O)/C(F)=C\[C@H]1CCCN1C [Example 105, (R,E)-N-(4-((4-([1,2,4]triazolo[1,5-a]pyridin-7-yloxy)-5-methyl-2-(trifluoromethoxy)phenyl)amino)-7-methoxyquinazolin-6-yl)-2-fluoro-3-(1-methylpyrrolidin-2-yl)acrylamide]	> 500
C=CC(=O)Nc1cc2c(Nc3cc(C)c(Oc4ccn5ncnc5c4)cc3OC)ncnc2cc1N1CCC(N2CCOCC2)CC1 [Example 22, N-(4-((4-([1,2,4]triazolo[1,5-a]pyridin-7-yloxy)-2-methoxy-5-methylphenyl)amino)-7-(4-morpholinopiperidin-1-yl)quinazolin-6-yl)acrylamide]	50 to 100
COc1cc2ncnc(Nc3cc(C)c(Oc4ccc5nccnc5c4)cc3OC)c2cc1NC(=O)/C(F)=C/[C@H]1CCCN1C [Example 63, (R,Z)-2-fluoro-N-(7-methoxy-4-((2-methoxy-5-methyl-4-(quinoxalin-6-yloxy)phenyl)amino)quinazolin-6-yl)-3-(1-methylpyrrolidin-2-yl)acrylamide]	≤ 50
COc1cc(Oc2ccn3ncnc3c2)c(C)cc1Nc1ncnc2cc(F)c(NC(=O)/C(F)=C\[C@H]3CCCN3C)cc12 [Example 102, (R,E)-N-(4-((4-([1,2,4]triazolo[1,5-a]pyridin-7-yloxy)-2-methoxy-5-methylphenyl)amino)-7-fluoroquinazolin-6-yl)-2-fluoro-3-(1-methylpyrrolidin-2-yl)acrylamide]	≤ 50
COc1cc(Oc2ccn3ncnc3c2)c(C)cc1Nc1ncnc2cc(OC(F)F)c(NC(=O)/C(F)=C/[C@H]3CCCN3C)cc12 [Example 98, (R,Z)—N-(4-((4-([1,2,4]triazolo[1,5-a]pyridin-7-yloxy)-2-methoxy-5-methylphenyl)amino)-7-(difluoromethoxy)quinazolin-6-yl)-2-fluoro-3-(1-methylpyrrolidin-2-yl)acrylamide]	≤ 50
C=CC(=O)N1CCC(Nc2cc3c(Nc4cc(C)c(Oc5ccn6ncnc6c5)cc4OC4CN(C)C4)ncnc3cc2OC)CC1 [Example 4, 1-(4-((4-((4-([1,2,4]triazolo[1,5-a]pyridin-7-yloxy)-5-methyl-2-((1-methylazetidin-3-yl)oxy)phenyl)amino)-7-methoxyquinazolin-6-yl)amino)piperidin-1-yl)prop-2-en-1-one]	100 to 500
COc1cc2ncnc(Nc3cc(C)c(Oc4ccc5cnn(C)c5c4)cc3OC)c2cc1NC(=O)/C(F)=C\[C@H]1CCCN1C [Example 89, (R,E)-2-fluoro-N-(7-methoxy-4-((2-methoxy-5-methyl-4-((1-methyl-1H-indazol-6-yl)oxy)phenyl)amino)quinazolin-6-yl)-3-(1-methylpyrrolidin-2-yl)acrylamide]	≤ 50
CC#CC(=O)Nc1cc2c(Nc3cc(C)c(Oc4ccn5ncnc5c4)cc3OC)ncnc2cc1OC [Example 28, N-(4-((4-([1,2,4]triazolo[1,5-a]pyridin-7-yloxy)-2-methoxy-5-methylphenyl)amino)-7-methoxyquinazolin-6-yl)but-2-ynamide]	≤ 50
CCOc1cc2ncnc(Nc3cc(C)c(Oc4ccn5ncnc5c4)cc3OC)c2cc1NC(=O)/C(F)=C/[C@H]1CCCN1C [Example 120, (R,Z)—N-(4-((4-([1,2,4]triazolo[1,5-a]pyridin-7-yloxy)-2-methoxy-5-methylphenyl)amino)-7-ethoxyquinazolin-6-yl)-2-fluoro-3-(1-methylpyrrolidin-2-yl)acrylamide]	≤ 50
[2H]C([2H])([2H])Oc1cc(Oc2ccn3ncnc3c2)c(C)cc1Nc1ncnc2cc(OC)c(NC(=O)/C=C/[C@H]3CCCN3C)cc12 [Example 148, (R,E)-N-(4-((4-([1,2,4]triazolo[1,5-a]pyridin-7-yloxy)-2-(methoxy-d3)-5-methylphenyl)amino)-7-methoxyquinazolin-6-yl)-3-(1-methylpyrrolidin-2-yl)acrylamide]	≤ 50
COc1cc2ncnc(Nc3cc(C)c(Oc4ccn5ncnc5c4)cc3OC3CC3)c2cc1NC(=O)/C(F)=C\[C@H]1CCCN1C [Example 106, (R,E)-N-(4-((4-([1,2,4]triazolo[1,5-a]pyridin-7-yloxy)-2-cyclopropoxy-5-methylphenyl)amino)-7-methoxyquinazolin-6-yl)-2-fluoro-3-(1-methylpyrrolidin-2-yl)acrylamide]	≤ 50
COc1cc2ncnc(Nc3cc(C)c(Oc4ccn5ncnc5c4)cc3OC)c2cc1NC(=O)/C=C/CN1CC2(COC2)C1 [Example 40, (E)-N-(4-((4-([1,2,4]triazolo[1,5-a]pyridin-7-yloxy)-2-methoxy-5-methylphenyl)amino)-7-methoxyquinazolin-6-yl)-4-(2-oxa-6-azaspiro[3.3]heptan-6-yl)but-2-enamide]	≤ 50
[2H]C([2H])([2H])Oc1cc(Oc2ccn3ncnc3c2)c(C)cc1Nc1ncnc2cc(OC)c(NC(=O)/C(F)=C/[C@H]3CCCN3C)cc12 [Example 149, (R,Z)—N-(4-((4-([1,2,4]triazolo[1,5-a]pyridin-7-yloxy)-2-(methoxy-d3)-5-methylphenyl)amino)-7-methoxyquinazolin-6-yl)-2-fluoro-3-(1-methylpyrrolidin-2-yl)acrylamide]	≤ 50
COc1cc2ncnc(Nc3cc(C)c(Oc4ccc5ncnn5c4)cc3OC)c2cc1NC(=O)/C(F)=C/[C@H]1CCCN1C [Example 73, (R,Z)—N-(4-((4-([1,2,4]triazolo[1,5-a]pyridin-6-yloxy)-2-methoxy-5-methylphenyl)amino)-7-methoxyquinazolin-6-yl)-2-fluoro-3-(1-methylpyrrolidin-2-yl)acrylamide]	≤ 50
COc1cc2ncnc(Nc3cc(C)c(Oc4ccc5ncnn5c4)cc3OC)c2cc1NC(=O)/C(F)=C\[C@H]1CCCN1C [Example 72, (R,E)-N-(4-((4-([1,2,4]triazolo[1,5-a]pyridin-6-yloxy)-2-methoxy-5-methylphenyl)amino)-7-methoxyquinazolin-6-yl)-2-fluoro-3-(1-methylpyrrolidin-2-yl)acrylamide]	≤ 50
COc1cc(Oc2ccn3ncnc3c2)c(C)cc1Nc1ncnc2cc(F)c(NC(=O)/C(F)=C/[C@H]3CCCN3C)cc12 [Example 103, (R,Z)—N-(4-((4-([1,2,4]triazolo[1,5-a]pyridin-7-yloxy)-2-methoxy-5-methylphenyl)amino)-7-fluoroquinazolin-6-yl)-2-fluoro-3-(1-methylpyrrolidin-2-yl)acrylamide]	≤ 50
CCOc1cc2ncc(C#N)c(Nc3cc(C)c(Oc4ccn5ncnc5c4)cc3OC)c2cc1NC(=O)/C(F)=C\[C@H]1CCCN1C [Example 132, (R,E)-N-(4-((4-([1,2,4]triazolo[1,5-a]pyridin-7-yloxy)-2-methoxy-5-methylphenyl)amino)-3-cyano-7-ethoxyquinolin-6-yl)-2-fluoro-3-(1-methylpyrrolidin-2-yl)acrylamide]	100 to 500
